Literature values, collected in patent US12239625B2, “Modified release gamma-hydroxybutyrate formulations having improved pharmacokinetics” (Flamel Ireland Limited, priority 2016, dated 2025).
Read-outs that look alike come from different tables or passages of the source.

Assays:
plasma proteins = details: GHB concentrations 3 mcg/mL to 300 mcg/mL
mouse = details: 2-year study
rat [1] = details: 2-year study
[2] = single oral dose 25 mg/kg
patients with narcolepsy = details: estimated dose of 150 g
CYP2C19 = CYP2C19 (Homo sapiens, UniProt P33261); details: up to 3 mM (378 mcg/mL)
CYP3A = details: up to 3 mM (378 mcg/mL)
CYP2C9 = CYP2C9 (Homo sapiens, UniProt P11712); details: up to 3 mM (378 mcg/mL)
CYP1A2 = molecular target: T1, CYP1A2 (Homo sapiens, UniProt P05177); details: up to 3 mM (378 mcg/mL)
T1 sequence (P05177 1-516): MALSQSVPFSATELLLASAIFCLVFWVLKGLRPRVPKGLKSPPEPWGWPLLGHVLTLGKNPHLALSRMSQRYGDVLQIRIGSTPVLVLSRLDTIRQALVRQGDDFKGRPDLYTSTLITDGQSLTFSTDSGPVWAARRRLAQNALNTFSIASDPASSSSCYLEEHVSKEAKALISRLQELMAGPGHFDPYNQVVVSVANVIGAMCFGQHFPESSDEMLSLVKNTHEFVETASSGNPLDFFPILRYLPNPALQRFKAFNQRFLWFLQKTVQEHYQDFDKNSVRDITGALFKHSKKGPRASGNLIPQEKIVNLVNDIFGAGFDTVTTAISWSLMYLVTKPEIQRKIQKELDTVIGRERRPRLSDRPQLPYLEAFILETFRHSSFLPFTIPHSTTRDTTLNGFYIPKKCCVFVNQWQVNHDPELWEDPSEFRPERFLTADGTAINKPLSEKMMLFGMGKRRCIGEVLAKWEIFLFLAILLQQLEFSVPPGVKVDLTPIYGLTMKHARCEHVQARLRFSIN

CYP2E1 = CYP2E1 (Homo sapiens, UniProt P05181); details: up to 3 mM (378 mcg/mL)
mammalian cells = details: in vitro
bacterial gene mutation = details: in vitro
[3] = 6 g per day as two 3 g doses; ibuprofen 800 mg four times per day
male and female rats = details: oral 150, 350, or 1,000 mg/kg/day prior to and throughout mating
rats [4] = tested on: rats
rats [5] = tested on: rats; remark: listed apart in the source
rat [6] = details: in vivo
CYP2D6 = CYP2D6 (Homo sapiens, UniProt P10635); details: up to 3 mM (378 mcg/mL)
Sequence of CYP2D6 (P10635 whole entry): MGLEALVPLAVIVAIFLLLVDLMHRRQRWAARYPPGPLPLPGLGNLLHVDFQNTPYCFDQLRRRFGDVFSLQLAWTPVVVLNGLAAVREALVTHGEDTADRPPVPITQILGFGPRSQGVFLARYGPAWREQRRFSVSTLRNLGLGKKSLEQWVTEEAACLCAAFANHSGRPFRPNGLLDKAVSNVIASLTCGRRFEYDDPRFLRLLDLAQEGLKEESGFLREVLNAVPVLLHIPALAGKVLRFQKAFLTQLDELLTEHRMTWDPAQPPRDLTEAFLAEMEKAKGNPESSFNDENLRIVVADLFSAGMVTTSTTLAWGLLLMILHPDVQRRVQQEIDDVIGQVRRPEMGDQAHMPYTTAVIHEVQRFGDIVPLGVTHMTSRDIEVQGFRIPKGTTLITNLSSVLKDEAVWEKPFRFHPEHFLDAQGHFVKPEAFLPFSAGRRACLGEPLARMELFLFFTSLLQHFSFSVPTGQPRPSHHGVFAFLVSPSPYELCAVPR

Sequence of CYP2C19 (P33261 whole entry): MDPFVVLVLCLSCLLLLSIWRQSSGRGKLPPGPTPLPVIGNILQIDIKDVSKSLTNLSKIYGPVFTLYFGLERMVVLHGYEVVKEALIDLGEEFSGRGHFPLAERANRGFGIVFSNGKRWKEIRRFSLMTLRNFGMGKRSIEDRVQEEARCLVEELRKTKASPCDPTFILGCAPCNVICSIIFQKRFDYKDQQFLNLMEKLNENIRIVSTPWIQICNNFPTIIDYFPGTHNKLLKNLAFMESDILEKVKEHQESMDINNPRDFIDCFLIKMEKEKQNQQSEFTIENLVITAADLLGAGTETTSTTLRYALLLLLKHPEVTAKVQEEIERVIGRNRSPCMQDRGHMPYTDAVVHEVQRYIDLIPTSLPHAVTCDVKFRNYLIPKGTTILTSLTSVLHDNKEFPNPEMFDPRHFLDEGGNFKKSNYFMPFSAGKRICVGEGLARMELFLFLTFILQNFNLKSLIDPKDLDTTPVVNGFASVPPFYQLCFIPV
Sequence of CYP2C9 (P11712 whole entry): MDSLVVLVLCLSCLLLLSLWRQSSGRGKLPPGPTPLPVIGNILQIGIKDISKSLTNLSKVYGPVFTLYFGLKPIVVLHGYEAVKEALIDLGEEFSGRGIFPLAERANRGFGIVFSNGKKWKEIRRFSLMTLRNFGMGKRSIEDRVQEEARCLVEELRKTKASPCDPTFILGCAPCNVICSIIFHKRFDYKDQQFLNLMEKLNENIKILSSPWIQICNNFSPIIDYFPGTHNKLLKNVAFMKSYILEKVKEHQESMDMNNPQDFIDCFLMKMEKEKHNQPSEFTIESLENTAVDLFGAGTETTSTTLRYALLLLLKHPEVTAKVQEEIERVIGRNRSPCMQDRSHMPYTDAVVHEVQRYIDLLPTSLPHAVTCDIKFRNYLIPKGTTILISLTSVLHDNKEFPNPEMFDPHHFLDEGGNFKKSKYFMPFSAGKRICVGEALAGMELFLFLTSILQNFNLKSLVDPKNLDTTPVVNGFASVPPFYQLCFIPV
Sequence of CYP2E1 (P05181 whole entry): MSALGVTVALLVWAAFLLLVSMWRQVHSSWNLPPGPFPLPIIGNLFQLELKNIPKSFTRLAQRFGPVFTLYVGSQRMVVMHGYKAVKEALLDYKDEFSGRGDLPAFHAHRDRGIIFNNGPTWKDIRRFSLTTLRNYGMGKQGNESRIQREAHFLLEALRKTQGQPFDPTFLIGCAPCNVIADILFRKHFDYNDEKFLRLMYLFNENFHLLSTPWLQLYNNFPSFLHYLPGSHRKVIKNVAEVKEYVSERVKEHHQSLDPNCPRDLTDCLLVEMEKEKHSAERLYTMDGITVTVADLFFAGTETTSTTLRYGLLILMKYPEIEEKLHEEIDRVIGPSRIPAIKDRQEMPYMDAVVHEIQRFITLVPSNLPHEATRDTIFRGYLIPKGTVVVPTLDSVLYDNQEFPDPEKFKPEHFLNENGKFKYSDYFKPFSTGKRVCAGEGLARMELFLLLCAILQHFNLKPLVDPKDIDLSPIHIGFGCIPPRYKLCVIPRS

O=C(O)CCCO [GHB, gamma-hydroxybutyrate]
Excretion in human milk (after oral administration of sodium oxybate): excreted in human milk | Apparent volume of distribution (human, in vivo): 0.19 to 0.384 L/kg | Elimination half-life (human, in vivo): 30 to 60 min | Unchanged drug in human urine (within 6 to 8 hours after dosing): less than 5% | Bound to plasma proteins (plasma proteins): less than 1%

O=C1CCCO1 [gamma-butyrolactone]
Carcinogenic activity (mouse): no clear evidence of carcinogenic activity | Carcinogenic activity (rat [1]): no clear evidence of carcinogenic activity

O=C([O-])CCCO.[Na+] [sodium oxybate, sodium 4-hydroxybutyrate]
Gender differences in the pharmacokinetics of GHB (18 female and 18 male healthy adults, oral dose 4.5 g): no gender differences | Mean elimination half-life ([2]; Class A): 32 min | Mean elimination half-life ([2]; Class C): 59 min | Mean elimination half-life ([2]; control patients): 22 min | Overdose case (patients with narcolepsy): unresponsive with brief periods of apnea | Inhibition of CYP2C19 activity (CYP2C19): does not significantly inhibit | Inhibition of CYP3A activity (CYP3A): does not significantly inhibit | Inhibition of CYP2C9 activity (CYP2C9): does not significantly inhibit | Inhibition of CYP1A2 activity (CYP1A2): does not significantly inhibit | Inhibition of CYP2E1 activity (CYP2E1): does not significantly inhibit | Chromosomal aberration (mammalian cells): negative | Bacterial gene mutation (bacterial gene mutation): negative | Systemic exposure to GHB on co-administration with ibuprofen [3]: comparable systemic exposure to GHB | Effects on fertility (male and female rats): no adverse effects on fertility | Body weight gain and sexual maturation (rats [4]; at the highest dose tested (900 mg/kg/day)): Reduced body weight gain in males and females and delayed sexual maturation in males | Mortality (rats [4]; oral 0, 100, 300, or 900 mg/kg/day, postnatal days 21 through 90): mortality was observed at the two highest closes tested | Tumors (rats [5]; oral doses up to 1,000 mg/kg/day for 83 (males) or 104 (females) weeks): no increase in tumors | Plasma exposure (AUC) at the highest dose tested as multiple of that in humans at the MRHD (rats [5]; rats): 2 times | Micronucleus (rat [6]): negative | Developmental toxicity (pregnant rabbits; oral 300, 600, or 1,200 mg/kg/day throughout organogenesis): no clear evidence of developmental toxicity | Highest dose tested as multiple of the MRHD (9 g per night) on mg/m2 basis (pregnant rabbits; rabbits): ~3 times | Inhibition of CYP2D6 activity (CYP2D6): does not significantly inhibit | Developmental toxicity (pregnant rats; oral 150, 350, or 1,000 mg/kg/day throughout organogenesis): no clear evidence of developmental toxicity | Highest dose tested as multiple of the MRHD (9 g per night) on mg/m2 basis (pregnant rats; rats): approximately 1 times
